According to patent publication US11434234B2, “Methods and agents for treating disease” (ANGION BIOMEDICA CORP., priority 2014, dated 2022):

Each molecule was assayed against T1, human CYP11B2 (Homo sapiens, UniProt P19099) (assay: Aldosterone inhibitory activity in V79 cells expressing human CYP11B2). Conditions: V79 Chinese hamster cells stably transfected with human CYP11B2; substrate 11-deoxycorticosterone 100 nM; read-out: IC50, inhibition of the production of aldosterone.
T1 construct: expressed in transfected cells; host or cells: V79 Chinese hamster cells
T1 sequence (P19099 25-503): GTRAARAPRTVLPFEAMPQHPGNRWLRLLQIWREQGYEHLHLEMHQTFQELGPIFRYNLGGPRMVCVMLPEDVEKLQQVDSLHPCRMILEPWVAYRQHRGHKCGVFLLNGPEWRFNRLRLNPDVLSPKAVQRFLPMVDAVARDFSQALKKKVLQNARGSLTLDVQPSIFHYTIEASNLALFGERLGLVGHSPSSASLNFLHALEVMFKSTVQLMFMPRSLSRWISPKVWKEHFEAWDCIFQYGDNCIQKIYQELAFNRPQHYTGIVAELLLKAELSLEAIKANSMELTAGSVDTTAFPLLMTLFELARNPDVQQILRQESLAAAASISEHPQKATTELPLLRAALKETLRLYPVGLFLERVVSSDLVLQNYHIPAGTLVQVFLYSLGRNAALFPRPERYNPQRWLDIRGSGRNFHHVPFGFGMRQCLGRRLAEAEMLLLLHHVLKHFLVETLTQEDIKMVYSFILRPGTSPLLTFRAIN
Type: cell-based
Method: For the determination of aldosterone inhibitory activity, tests were carried out using V79 Chinese hamster cells stably transfected with human CYP11B2 or CYP11B1 and using assay protocols as described in Ehmer P B, Bureik M, Bernhardt R, Muller U, Hartmann R W. Development of a test system for inhibitors of human aldosterone synthase (CYP11B2): screening in fission yeast and evaluation of selectivity in V79 cells. J. Steroid Biochem. Mol. Biol. 2002 June; 81(2):173-9. The concentration of the substrate 11-deoxycorticosterone in the assay was 100 nM.
With `CC(C)c1ccncc1C(O)(c1nc2cccc(Br)c2s1)C(C)C` (stereo not shown) [Example 34, 1-(7-bromobenzo[d]thiazol-2-yl)-1-(4-isopropylpyridin-3-yl)-2-methylpropan-1-ol] the IC50 was under 1 µM.
For `CCCC(O)(c1cncc(OC)c1)c1nc2ccc(F)cc2s1` (stereo not shown) [Example 20, 1-(6-fluorobenzo[d]thiazol-2-yl)-1-(5-methoxypyridin-3-yl)butan-1-ol], the IC50 was under 1 µM.
In the case of `COc1ccncc1C(O)c1nc2ccc(Br)cc2s1` (stereo not shown) [Example 26, (6-bromobenzo[d]thiazol-2-yl)(4-methoxypyridin-3-yl)methanol], the IC50 is reported as under 1 µM.
With `CCCC(O)(c1nc2ccc(C(F)(F)F)cc2s1)c1cnccc1OCC` (stereo not shown) [Example 45, 1-(4-ethoxypyridin-3-yl)-1-(6-(trifluoromethyl)benzo[d]thiazol-2-yl)butan-1-ol] the IC50 was under 1 µM.
With `CCCC(O)(c1nc2ccc(OC(F)(F)F)c(Cl)c2s1)c1cnccc1OCC` (stereo not shown) [Example 59, 1-(7-chloro-6-(trifluoromethoxy)benzo[d]thiazol-2-yl)-1-(4-ethoxypyridin-3-yl)butan-1-ol] the IC50 was under 1 µM.
`CCCC(O)(c1nc2ccc(Br)cc2s1)c1cnccc1C(C)C` (stereo not shown) [Example 37, 1-(6-bromobenzo[d]thiazol-2-yl)-1-(4-isopropylpyridin-3-yl)butan-1-ol] gave an IC50 of under 1 µM.
`CCCC(O)(c1nc2ccc(Br)cc2s1)c1cnccc1OC` (stereo not shown) [Example 70, 1-(6-bromobenzo[d]thiazol-2-yl)-1-(4-methoxypyridin-3-yl)butan-1-ol] gave an IC50 of under 1 µM.
`COc1ccncc1C(O)c1nc2cccc(Br)c2s1` (stereo not shown) [Example 27, (7-bromobenzo[d]thiazol-2-yl)(4-methoxypyridin-3-yl)methanol] gave an IC50 of under 1 µM.
Work on `CCCC(O)(c1nc2ccc(Cl)cc2s1)c1cnccc1OCC` (stereo not shown) [Example 39, 1-(6-chlorobenzo[d]thiazol-2-yl)-1-(4-ethoxypyridin-3-yl)butan-1-ol] yielded an IC50 of under 1 µM.
Work on `COc1ccncc1C(O)(c1nc2ccc(Br)cc2s1)C(C)C` (stereo not shown) [Example 25, 1-(6-bromobenzo[d]thiazol-2-yl)-1-(4-methoxypyridin-3-yl)-2-methylpropan-1-ol] yielded an IC50 of under 1 µM.
With `CCCC(O)(c1nc2ccc([N+](=O)[O-])cc2s1)c1cnccc1OC` (stereo not shown) [Example 28, 1-(4-methoxypyridin-3-yl)-1-(6-nitrobenzo[d]thiazol-2-yl)butan-1-ol] the IC50 was under 1 µM.
Work on `CCCC(O)(c1nc2ccc(OC(F)(F)F)c(C)c2s1)c1cnccc1OCC` (stereo not shown) [Example 61, 1-(4-ethoxypyridin-3-yl)-1-(7-methyl-6-(trifluoromethoxy)benzo[d]thiazol-2-yl)butan-1-ol] yielded an IC50 of under 1 µM.
`CCCC(O)(c1nc2ccc(Oc3ccc(F)cc3)cc2s1)c1cnccc1OCC` (stereo not shown) [Example 55, 1-(4-ethoxypyridin-3-yl)-1-(6-(4-fluorophenoxy)benzo[d]thiazol-2-yl)butan-1-ol] was tested, and the IC50 was under 1 µM.
`CCCC(O)(c1nc2cccc(C(F)(F)F)c2s1)c1cnccc1OCC` (stereo not shown) [Example 47, 1-(4-ethoxypyridin-3-yl)-1-(7-(trifluoromethyl)benzo[d]thiazol-2-yl)butan-1-ol] gave an IC50 of under 1 µM.
In the case of `CCCC(O)(c1nc2ccc(Br)cc2s1)c1cnccc1OCC` (stereo not shown) [Example 29, 1-(6-bromobenzo[d]thiazol-2-yl)-1-(4-ethoxypyridin-3-yl)butan-1-ol], the IC50 is reported as under 1 µM.

What follows are molecules tested against T2, aldosterone synthase (Homo sapiens, UniProt P19099) (assay: Ang-II stimulated aldosterone production in H295R cells (ELISA)). Conditions: Ang-II stimulated.
T2 construct: host or cells: H295R human adrenocortical carcinoma cells
T2 sequence (P19099 25-503): T1 sequence (P19099 25-503)
Type: cell-based
Method: To test the activity of compounds in a cell-based assay, a well-established assay described in the literature was used [Muller-Vieira U, Angotti M, Hartmann R W. The adrenocortical tumor cell line NCI-H295R as an in vitro screening system for the evaluation of CYP11B2 (aldosterone synthase) and CYP11B1 (steroid-11beta-hydroxylase) inhibitors. […] In brief, human adrenocortical carcinoma cells (H295R; ATCC CRL-2128) were plated in 96-well plates and the effect of compounds on angiotensin-II (Ang-II) stimulated aldosterone production was determined in the supernatant using an ELISA kit (Genway 40-521-475012). […] Compounds were tested in the aldosterone production assay at various concentrations and from dose-response inhibition curves the % inhibition at specific concentrations and the IC50 were calculated.
`CC(=O)N1CCN(c2ccc(OCC3COC(Cn4ccnc4)(c4ccc(Cl)cc4Cl)O3)cc2)CC1` (stereo not shown) [ketoconazole] was tested, and the “Ang-II stimulated aldosterone production” value was “significantly inhibited”.
With `CCOC(=O)c1cncn1[C@H](C)c1ccccc1` [etomidate] the “Ang-II stimulated aldosterone production” value was “significantly inhibited”.

Same assay, conditions: basal
For `CC(=O)N1CCN(c2ccc(OCC3COC(Cn4ccnc4)(c4ccc(Cl)cc4Cl)O3)cc2)CC1` (stereo not shown) [ketoconazole], the basal aldosterone production was “significantly inhibited”.
With `CCOC(=O)c1cncn1[C@H](C)c1ccccc1` [etomidate] the basal aldosterone production was “significantly inhibited”.
